Data on seven compounds can be found in ChEMBL document CHEMBL5390272, “Discovery of a potent and selective human AC2 inhibitor based on 7-deazapurine analogues of adefovir” (Bioorg Med Chem, 2023).

Series [1] is described as follows: Inhibition of Bordetella pertussis Adenylate cyclase toxin in mouse J774.A1 cells preincubated for 5 hrs followed by ACT addition and measured after 30 mins by CatchPointcAMP immunoassay method. The class given is cell-based.
Series [2] addresses T1, Calmodulin-sensitive adenylate cyclase (Bacillus anthracis, UniProt P40136).
T1 sequence (P40136 whole entry): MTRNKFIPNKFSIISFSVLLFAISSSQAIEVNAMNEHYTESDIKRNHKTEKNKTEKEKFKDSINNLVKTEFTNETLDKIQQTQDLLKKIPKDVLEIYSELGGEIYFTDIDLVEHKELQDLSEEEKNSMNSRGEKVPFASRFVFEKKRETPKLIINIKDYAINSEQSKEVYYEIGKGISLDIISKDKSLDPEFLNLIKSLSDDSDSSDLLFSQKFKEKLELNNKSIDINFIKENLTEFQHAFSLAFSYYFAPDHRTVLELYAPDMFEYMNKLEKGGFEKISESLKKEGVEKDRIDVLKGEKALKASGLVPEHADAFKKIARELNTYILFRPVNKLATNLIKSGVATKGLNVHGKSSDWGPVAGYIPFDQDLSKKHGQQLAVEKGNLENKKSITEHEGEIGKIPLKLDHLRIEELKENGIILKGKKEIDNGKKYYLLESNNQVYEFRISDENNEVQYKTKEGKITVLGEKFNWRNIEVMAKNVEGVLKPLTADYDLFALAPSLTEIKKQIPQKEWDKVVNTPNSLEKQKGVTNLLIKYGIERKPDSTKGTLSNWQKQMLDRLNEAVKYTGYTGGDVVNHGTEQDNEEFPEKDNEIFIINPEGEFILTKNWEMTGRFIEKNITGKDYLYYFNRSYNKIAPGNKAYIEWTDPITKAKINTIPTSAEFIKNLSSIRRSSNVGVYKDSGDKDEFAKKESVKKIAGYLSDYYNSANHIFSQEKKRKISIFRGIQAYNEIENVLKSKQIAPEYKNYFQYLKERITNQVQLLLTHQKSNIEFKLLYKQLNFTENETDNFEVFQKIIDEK
In words: Inhibition of Bacillus anthracis Edema factor.

Series [3] relates to NHDF. The experiment in a line: Cytotoxicity against human NHDF cells by CellTiter-Glo 2.0 assay. The class given is toxicity, cell-based.
Series [4] relates to HL-60. In words: Cytotoxicity against human HL-60 cells by CellTiter-Glo 2.0 assay. The format is functional, cell-based.
The subject of series [5] is HeLa S3. In words: Cytotoxicity against human HeLa S3 cells by CellTiter-Glo 2.0 assay. The class given is functional, cell-based.
The target in series [6] is D(1A) dopamine receptor (Homo sapiens, UniProt P21728). The experiment in a line: Inhibition of human D1 receptor expressed in HEK293 cells assessed as cyclic AMP accumulation incubated for 1 hr in presence of dopamine by HTR-FRET assay. The class given is functional, cell-based.
Series [7] in a line: Cytotoxicity against mouse J774.A1 cells assessed as cell viability at 10 uM incubated for 5 hrs by Cell Titer-Glo Luminescent Cell Viability assay relative to control. The class given is toxicity, cell-based. To be noted: read-out: Activity.
Series [8] concerns the target Adenylate cyclase type 2 (Homo sapiens, UniProt Q08462). In words: Inhibition of human adenylate cyclase 2 expressed in ACdelta 3/6 knockout HEK293 cells assessed as cyclic AMP accumulation incubated for 30 min followed by FSK stimulation by HTR-FRET assay. The class given is cell-based.
The subject of series [9] is HepG2. In words: Cytotoxicity against human HepG2 cells by CellTiter-Glo 2.0 assay. The format is functional, cell-based.
For series [10], the system named is CCRF-CEM. In words: Cytotoxicity against human CCRF-CEM cells by CellTiter-Glo 2.0 assay. The format is functional, cell-based.
In series [11] the test system is HEK293. The experiment in a line: Cytotoxicity against AC1 expressed HEK293 cells by CellTiter-Glo 2.0 assay relative to control. Particulars: human. The format is toxicity, cell-based. More on the design: concentration or dose not given beside the values.

pIC50: −log10 of the molar value.

Sequence of D(1A) dopamine receptor (P21728 whole entry): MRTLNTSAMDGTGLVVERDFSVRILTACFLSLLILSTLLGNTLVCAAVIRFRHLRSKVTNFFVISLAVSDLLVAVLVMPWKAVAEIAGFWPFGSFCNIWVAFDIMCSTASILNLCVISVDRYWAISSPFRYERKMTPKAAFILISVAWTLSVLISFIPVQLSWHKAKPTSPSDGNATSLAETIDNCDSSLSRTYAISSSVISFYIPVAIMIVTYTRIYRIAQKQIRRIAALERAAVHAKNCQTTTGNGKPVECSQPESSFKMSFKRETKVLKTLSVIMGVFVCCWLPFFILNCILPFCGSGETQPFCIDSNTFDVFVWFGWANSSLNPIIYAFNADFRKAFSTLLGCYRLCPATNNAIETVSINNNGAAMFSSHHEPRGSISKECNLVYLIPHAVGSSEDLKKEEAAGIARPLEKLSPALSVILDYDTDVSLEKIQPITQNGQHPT
Sequence of Adenylate cyclase type 2 (Q08462 whole entry): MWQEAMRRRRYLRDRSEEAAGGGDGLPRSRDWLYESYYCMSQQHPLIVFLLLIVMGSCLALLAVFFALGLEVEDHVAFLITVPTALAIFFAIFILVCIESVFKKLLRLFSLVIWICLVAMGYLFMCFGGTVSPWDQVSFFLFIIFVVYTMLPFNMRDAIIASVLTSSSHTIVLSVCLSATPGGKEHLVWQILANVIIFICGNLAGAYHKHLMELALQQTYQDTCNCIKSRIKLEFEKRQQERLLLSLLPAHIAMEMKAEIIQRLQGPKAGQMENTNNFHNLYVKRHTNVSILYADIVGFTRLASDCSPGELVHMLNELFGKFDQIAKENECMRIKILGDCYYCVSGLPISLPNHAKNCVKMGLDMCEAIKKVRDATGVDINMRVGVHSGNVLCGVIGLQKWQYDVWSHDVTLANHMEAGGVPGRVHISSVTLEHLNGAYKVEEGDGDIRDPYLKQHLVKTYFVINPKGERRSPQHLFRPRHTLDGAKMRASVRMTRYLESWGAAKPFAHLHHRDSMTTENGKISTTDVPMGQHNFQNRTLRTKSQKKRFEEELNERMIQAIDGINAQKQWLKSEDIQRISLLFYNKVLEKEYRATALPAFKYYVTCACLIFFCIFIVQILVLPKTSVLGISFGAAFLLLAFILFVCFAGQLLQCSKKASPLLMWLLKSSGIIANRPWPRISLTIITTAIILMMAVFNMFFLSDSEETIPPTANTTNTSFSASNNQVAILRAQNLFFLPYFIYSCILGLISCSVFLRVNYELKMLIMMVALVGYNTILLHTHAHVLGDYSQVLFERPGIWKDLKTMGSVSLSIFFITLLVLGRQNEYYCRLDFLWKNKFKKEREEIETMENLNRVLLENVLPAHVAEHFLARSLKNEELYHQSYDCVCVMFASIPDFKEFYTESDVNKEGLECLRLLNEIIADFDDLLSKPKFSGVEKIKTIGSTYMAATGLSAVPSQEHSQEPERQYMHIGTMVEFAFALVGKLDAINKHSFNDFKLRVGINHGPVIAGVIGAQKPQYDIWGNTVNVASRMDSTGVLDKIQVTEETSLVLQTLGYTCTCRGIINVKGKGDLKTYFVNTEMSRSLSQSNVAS

Consider `Cc1cn(CCOCP(=O)(O)OP(=O)(O)OP(=O)(O)O)c2ncnc(N)c12`, for which the figures for the pIC50 in [1] and in series [2] were 7.21 and 6.97, respectively.

Take `CC(C)OC(=O)[C@H](Cc1ccccc1)NP(=O)(COCCn1cc(-c2cccc(-c3noc(=O)[nH]3)c2)c2c(N)ncnc21)N[C@@H](Cc1ccccc1)C(=O)OC(C)C`: the pIC50 in [3] was < 5.00; in series [4], 5.00; in series [5], < 5.00; in [6], < 5.00; in series [8] it was 5.35; in series [9], < 5.00. In addition, the pIC50 in series [10] and in [1] was < 5.00 throughout. Also, the viability at 5 h, 10 µM in series [7] was 114%. Moreover, the Activity in series [11] is reported as 89%.

Take `CC(C)OC(=O)[C@H](Cc1ccccc1)NP(=O)(COCCn1cc(C#Cc2ccccc2)c2c(N)ncnc21)N[C@@H](Cc1ccccc1)C(=O)OC(C)C`: the pIC50 in series [3] is < 5.00; in series [4], 5.32; in [5], 5.28; in series [9], 5.14; in series [10] it was 5.35; in [1], < 5.00. For the same compound, the viability at 5 h, 10 µM in [7] is 116%. Moreover, the Activity in series [11] is listed as -9%.

`Nc1ncnc2c1c(-c1ccccn1)cn2CCOCP(=O)(O)OP(=O)(O)OP(=O)(O)O`: the pIC50 in [1] is 6.97; in [2] it was 7.29.

Regarding `COc1ccc(-c2cn(CCOCP(=O)(O)OP(=O)(O)OP(=O)(O)O)c3ncnc(N)c23)cc1`, the results for the pIC50 in [1] and in series [2] were 6.73 and 7.05, respectively.

For the compound `CCc1cn(CCOCP(=O)(N[C@@H](Cc2ccccc2)C(=O)OC(C)C)N[C@@H](Cc2ccccc2)C(=O)OC(C)C)c2ncnc(N)c12`, the pIC50 in [3] is < 5.00; in [4], 5.10; in series [5], < 5.00; in series [9] it was < 5.00; in series [10], < 5.00; in [1] it was < 5.00. Besides, the viability at 5 h, 10 µM in series [7] is 125%. For the same compound, the Activity in series [11] amounted to 90%.

In series [2], `Nc1ncnc2c1ncn2CCOCP(=O)(O)OP(=O)(O)OP(=O)(O)O` [ADEFOVIR DIPHOSPHATE] gave a pIC50 of 7.87.
